Converted amounts (≈) assume the structure as drawn.
Legend:
[1] = test system: Candida albicans; experiment: Antifungal activity against FCZ-resistant Candida albicans CaR by CLSI based broth microdilution method; assay type: functional
[2] = test system: Candida albicans; experiment: Fungicidal activity against Candida albicans; assay type: functional
[3] = test system: Candida albicans; experiment: Fungicidal activity against FCZ-resistant Candida albicans 17#; assay type: functional
[4] = biological target: T1, Lanosterol 14-alpha demethylase (Candida albicans (strain SC5314 / ATCC MYA-2876) (Yeast), UniProt P10613); experiment: Inhibition of CYP51 of Candida albicans ATCC SC5314 assessed as increase in obtusifoliol level at 2 ug/ml incubated for 16 hrs by GC-MS analysis (reference value: 0 %); design: scale not given: the % may be the effect or the level left; details: at 2 µg/mL
T1 sequence (P10613 whole entry): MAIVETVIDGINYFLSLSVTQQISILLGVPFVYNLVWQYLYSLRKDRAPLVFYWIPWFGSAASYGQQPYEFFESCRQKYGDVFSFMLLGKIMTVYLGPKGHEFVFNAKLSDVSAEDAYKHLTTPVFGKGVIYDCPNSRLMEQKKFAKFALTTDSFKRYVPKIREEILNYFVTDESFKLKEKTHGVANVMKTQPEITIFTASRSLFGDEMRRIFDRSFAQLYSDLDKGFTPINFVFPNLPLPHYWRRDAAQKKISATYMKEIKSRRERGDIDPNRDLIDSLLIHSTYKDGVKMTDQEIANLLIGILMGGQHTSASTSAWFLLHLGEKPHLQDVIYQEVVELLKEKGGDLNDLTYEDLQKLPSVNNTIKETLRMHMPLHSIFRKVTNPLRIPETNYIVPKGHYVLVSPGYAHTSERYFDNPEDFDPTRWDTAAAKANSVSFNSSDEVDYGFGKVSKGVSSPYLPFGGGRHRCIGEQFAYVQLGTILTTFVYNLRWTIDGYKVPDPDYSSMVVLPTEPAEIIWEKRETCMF

[5] = biological target: T1, Lanosterol 14-alpha demethylase; experiment: Inhibition of CYP51 of Candida albicans ATCC SC5314 assessed as increase in obtusifoliol level at 4 ug/ml incubated for 16 hrs by GC-MS analysis (reference value: 0 %); design: scale not given: the % may be the effect or the level left; details: at 4 µg/mL
[6] = biological target: T1, Lanosterol 14-alpha demethylase; experiment: Inhibition of CYP51 of Candida albicans ATCC SC5314 assessed as increase in lanosterol level at 8 ug/ml incubated for 16 hrs by GC-MS analysis (reference value: 1.7 %); design: scale not given: the % may be the effect or the level left; details: at 8 µg/mL
[7] = biological target: T1, Lanosterol 14-alpha demethylase; experiment: Inhibition of CYP51 of Candida albicans ATCC SC5314 assessed as increase in eburicol level at 2 ug/ml incubated for 16 hrs by GC-MS analysis (reference value: 0 %); design: scale not given: the % may be the effect or the level left; details: at 2 µg/mL
[8] = test system: Candida albicans; experiment: Antibiofilm activity against Candida albicans SC5314 assessed as sessile minimum inhibitory concentration measured after 1.5 hrs by XTT assay; assay type: functional
[9] = Metabolic stability in mouse liver microsome assessed as half life; assay type: ADME; details: liver microsomes
[10] = Acute toxicity in water diet-fed Kunming mouse administered intragastrically measured for 7 days; details: in vivo, po, route ig, time 7 day
[11] = Subacute toxicity in water diet-fed Kunming mouse assessed as lesions in kidney at 100 to 200 mg/kg, IG measured after 8 to 15 days; assay type: organism-based; details: in vivo, po, dose lower 100 mg/kg, time lower 8 day, dose upper 200 mg/kg, time upper 15 day
[12] = Subacute toxicity in water diet-fed Kunming mouse assessed as effect on kidney at 100 to 200 mg/kg, IG measured after 7 to 14 days by microscopic analysis; assay type: organism-based; details: in vivo, po, dose lower 100 mg/kg, time lower 7 day, dose upper 200 mg/kg, time upper 14 day
[13] = Subacute toxicity in water diet-fed Kunming mouse assessed as focal necrosis in liver at 100 to 200 mg/kg, IG measured after 7 to 14 days by microscopic analysis; assay type: organism-based; details: in vivo, po, dose lower 100 mg/kg, time lower 7 day, dose upper 200 mg/kg, time upper 14 day

Clc1ccc(C(Cn2ccnc2)[Se][Se]C(Cn2ccnc2)c2ccc(Cl)cc2Cl)c(Cl)c1 (centres undefined)
MIC [1]: 2 µg/mL (≈ 3.13 µM)
MFC [2]: 16 µg/mL (≈ 25.1 µM)
MFC [3]: > 64 µg/mL
Activity [4]: 12.2%
Activity [5]: 13.5%
Activity [6]: 16.7%
Activity [7]: 62.8%
MIC50 [8]: 0.5 µg/mL (≈ 0.784 µM)
MIC80 [8]: 4 µg/mL (≈ 6.27 µM)
half-life [9]: 41.1 min
LD50 at 168 h [10]: ~2000 mg/kg
Activity [11]: Non-Toxic
Activity [12]: Toxic
Activity [13]: Toxic
